# Measured values as given in US20160346255A1, “METHODS, AGENTS AND COMPOSITIONS FOR TREATMENT OF INFLAMMATORY CONDITIONS” (Betanien Hospital, priority 2014, published 2016).
# Non-standard residues stand in square brackets, D forms with d. Residues, ends and D or L forms follow the SMILES beside them. *: point of attachment. dPhe(4-NHCONH2) = NC(=O)Nc1ccc(C[C@@H](N)C(=O)O)cc1; Dihydroorotyl(S) = O=C1C[C@@H](C(=O)*)NC(=O)N1; dPhe(4-Cl) = N[C@H](Cc1ccc(Cl)cc1)C(=O)O; Phe(4-NH2) = Nc1ccc(C[C@H](N)C(=O)O)cc1; d2Nal = N[C@H](Cc1ccc2ccccc2c1)C(=O)O; Lys(iPr) = CC(C)NCCCC[C@H](N)C(=O)O; d3Pal = N[C@H](Cc1cccnc1)C(=O)O
# Experiments:
# [1] = tested on: Patient with Ankylosing Spondylitis; test: Ankylosing spondylitis patient treated with degarelix (and earlier TNF inhibitors); type: in vivo, human; conditions: for Glomerular filtration rate (>60): 10 Sep. 2014 56; for Creatinine (60-105 μmol/L): 10 Sep. 2014 112; for Urate (230-480 μmol/L): 10 Sep. 2014 515; for CRP: 10 Sep. 2014 <5; for BASDAI: baseline 8.7
# Text: Example of Treating a Patient with Ankylosing Spondylitis with a GnRH Antagonist
# Diagnosed with ankylosing spondylitis in 1984, HLAB27 positive, with repeated iridocyclitis. Used non-steroidal anti-inflammatory drugs previously. They were offered the TNFα inhibitor Golilimumab in 2010. Their disease activity score was 8.9 in October 2010 (see below for explanation of disease activity score) on initiating Golilimumab; by the June 2012 this score had reduced to 6.6, but by May 2013 the effect had worn off and their score was 7.6. May 2013, they initiated Enbrel treatment, but their disease activity increased from 7.6 to 8.3. Due to their poor response to TNFα therapy, they were offered the GnRH antagonist degarelix in September 2014.
# Disease activity in ankylosing spondylitis is measured by the BASDAI (Bath Ankylosing Spondylitis Disease Activity Index (1)), which has been extensively validated in clinical trials, 2, 3 and is one of the most commonly used outcome measures in clinical trials. This is a composite index that evaluates fatigue, axial and peripheral pain, stiffness and enthesopathy. Their BASDAI was at 8.7 at baseline. In September 2014 they received their first dose of degarelix 240 mg s.c. By 2 weeks, their BASDAI had reduced to 6.8, and by 6 weeks it had reduced to 5.8. This is the lowest BASDAI score they have ever had since we first started using this method of assessment 4 years ago in 2010. Their morning stiffness lasted 4 hours at baseline, by 6 weeks their morning stiffness had reduced to 2 hours. They had their second dose of degarelix 80 mg s.c in October 2014. Lumbar flexion and maximum arm abduction were increased after 6 weeks of treatment.
# Response to therapy in clinical practice is defined as improvement of 2 units or 50% on a 0-10 scale of the BASDAI, and expert opinion that the treatment should be continued. Their reduction by 6 weeks was 2.9 units, and 7.1 units with an 82% BASDAI score improvement by 9 weeks, and we shall continue treatment. A BASDAI 50% improvement is defined as a major clinical response. […] For comparison, approximately 50-60% of patients achieve a BASDAI 50 by 12 weeks on TNF inhibitors (4). Their ESR has decreased from 46 mm to 23 mm, which is their lowest ESR reading in 19 years. […] By 9 weeks of GnRH antagonist therapy, their kidney function has normalized, and fasting glucose reduced from 7.4 to 6.5 mmol/L. By 3 months, the effect on their ankylosing spondylitis remained, creatinine was at 98 μmol/L, with a glomerular filtration rate of 66 ml/min/1.73 m^2 in December 2014.
# [2] = tested on: Patient with Systemic Sclerosis; test: Systemic sclerosis patient treated with degarelix; type: in vivo, human; conditions: for HAQ DI: baseline 1.88; for Digital tip ulcers/pitting scars: baseline 5; for Modified Rodnan Skin Score: baseline 42; for VAS Fatigue / VAS Fingertip pain/pitting scars/ulcers / VAS Gastrointestinal Symptoms / VAS Global / VAS Lung/dyspnea / VAS Pain / VAS Raynauds/vascular: baseline 100; for Sleep: baseline 2 hrs/night
# Text: • person, diagnosed with systemic sclerosis • Fulfilled the 2013 EULAR/ACR classification criteria for systemic sclerosis (1). • Diagnosis based upon Raynauds phenomenon, positive ANA, high titre anti-Scl 70 antibodies, marked skin changes typical of scleroderma, and esophageal dysmotility. • Previously tried cyclophosphamide and mycophenolate mofetil. • Progressive disease and worsening scleroderma skin features, despite therapy. • Rapid progressive cardiac disease, verified by biopsy. • Experimental treatment • 5 Dec. 2014 received first dose of degarelix, 240 mg s.c. • 9 Jan. 2015 received second dose of degarelix, 80 mg s.c.
# • Digital ulcers and pitting scars are a characteristic feature of systemic sclerosis, contributing to disability and pain. They are important factors in patients' evaluations of quality of life (2). Their precise objective evaluation can be included in randomized controlled trials (3). Their pathogenesis is unclear. Histologically, there is a plug-like hyperkeratosis with parakeratosis, homogenized collagen fibers and perivascular mononuclear cell infiltration (4). […] Efficacy variables in a systemic sclerosis patient treated with a GnRH antagonist at baseline, 5 weeks and 6 weeks: […]
# [3] = ankylosing spondylitis patient, after 6 weeks
# [4] = ankylosing spondylitis patient, by 3 months, December 2014
# [5] = ankylosing spondylitis patient, by 6 weeks
# [6] = ankylosing spondylitis patient, by 9 weeks
smiles,measurement,setting,value
CC(=O)N[C@H](Cc1ccc2ccccc2c1)C(=O)N[C@H](Cc1ccc(Cl)cc1)C(=O)N[C@H](Cc1cccnc1)C(=O)N[C@@H](CO)C(=O)N[C@@H](Cc1ccc(NC(=O)[C@@H]2CC(=O)NC(=O)N2)cc1)C(=O)N[C@H](Cc1ccc(NC(N)=O)cc1)C(=O)N[C@@H](CC(C)C)C(=O)N[C@@H](CCCCNC(C)C)C(=O)N1CCC[C@H]1C(=O)N[C@H](C)C(N)=O [degarelix] (Ac-[d2Nal][dPhe(4-Cl)][d3Pal]S[Phe(4-NH2)](Dihydroorotyl(S))[dPhe(4-NHCONH2)]L[Lys(iPr)]P[dA]-NH2),Glucose fasting (4.0-6.0 mmol/L),"[1]; 10 Nov. 2014 (9 weeks), 10 Sep. 2014 7.4",6.5 mmol/L
same,Glomerular filtration rate (>60),[1]; 10 Nov. 2014,65 ml/min/1.73 m^2
same,Creatinine (60-105 μmol/L),[1]; 10 Nov. 2014,99 µmol/L
same,Urate (230-480 μmol/L),[1]; 10 Nov. 2014,426 µmol/L
same,CRP,[1]; 10 Nov. 2014,<5
same,Glomerular filtration rate (>60),[1]; 24 Sep. 2014,55↓ ml/min/1.73 m^2
same,Creatinine (60-105 μmol/L),[1]; 24 Sep. 2014,114↑ μmol/L
same,Urate (230-480 μmol/L),[1]; 24 Sep. 2014,512↑ μmol/L
same,ESR (<20 mm),"[1]; 24 Sep. 2014, 10 Sep. 2014 (start) 46",31↑ mm
same,CRP,[1]; 24 Sep. 2014,<5
same,ESR (<20 mm),"[1]; 27 Oct. 2014, 10 Sep. 2014 46",28↑ mm
same,Glomerular filtration rate (>60),[1]; 27 Oct. 2014,56↓ ml/min/1.73 m^2
same,Creatinine (60-105 μmol/L),[1]; 27 Oct. 2014,111↑ μmol/L
same,Urate (230-480 μmol/L),[1]; 27 Oct. 2014,495↑ μmol/L
same,CRP,[1]; 27 Oct. 2014,<5
same,Lumbar flexion,[1]; [3],increased
same,Maximum arm abduction,[1]; [3],increased
same,ASAS response achieved,"[1]; ankylosing spondylitis patient, at least 80% improvement",ASAS 80
same,BASDAI,"[1]; ankylosing spondylitis patient, by 2 weeks",6.8
same,Creatinine,[1]; [4],98 µmol/L
same,Glomerular filtration rate,[1]; [4],66 ml/min/1.73 m^2
same,BASDAI reduction,[1]; [5],2.9 units
same,BASDAI,[1]; [5],5.8
same,Morning stiffness,"[1]; ankylosing spondylitis patient, by 6 weeks, baseline 4 hours",2 h
same,BASDAI reduction,[1]; [6],7.1 units
same,BASDAI score improvement,[1]; [6],82%
same,Kidney function,[1]; [6],normalized
same,HAQ DI,[2]; 5 weeks,1.38
same,Digital tip ulcers/pitting scars,[2]; 5 weeks,2
same,Modified Rodnan Skin Score,[2]; 5 weeks,40
same,VAS Fatigue,[2]; 5 weeks,75
same,VAS Fingertip pain/pitting scars/ulcers,[2]; 5 weeks,40
same,VAS Gastrointestinal Symptoms,[2]; 5 weeks,80
same,VAS Global,[2]; 5 weeks,40
same,VAS Lung/dyspnea,[2]; 5 weeks,80
same,VAS Pain,[2]; 5 weeks,10
same,VAS Raynauds/vascular,[2]; 5 weeks,40
same,Sleep,[2]; 5 weeks,5 hrs/night
same,HAQ DI,[2]; 6 weeks,1.38
same,Digital tip ulcers/pitting scars,[2]; 6 weeks,2
same,Modified Rodnan Skin Score,[2]; 6 weeks,40
same,VAS Fatigue,[2]; 6 weeks,60
same,VAS Fingertip pain/pitting scars/ulcers,[2]; 6 weeks,30
same,VAS Gastrointestinal Symptoms,[2]; 6 weeks,60
same,VAS Global,[2]; 6 weeks,40
same,VAS Lung/dyspnea,[2]; 6 weeks,50
same,VAS Pain,[2]; 6 weeks,10
same,VAS Raynauds/vascular,[2]; 6 weeks,30
same,Sleep,[2]; 6 weeks,5.5 hrs/night
